pIC50: −log10 of the molar value.
Columns and labels:
Aurora kinase A [1] = target: T1, Aurora kinase A (Homo sapiens, UniProt O14965); test: Inhibition of recombinant Aurora A (unknown origin) using myelin basic protein as substrate incubated for 30 mins in presence or absence of DTT by [gamma-33P]-ATP based radioactive filter binding assay
T1 sequence (O14965 whole entry): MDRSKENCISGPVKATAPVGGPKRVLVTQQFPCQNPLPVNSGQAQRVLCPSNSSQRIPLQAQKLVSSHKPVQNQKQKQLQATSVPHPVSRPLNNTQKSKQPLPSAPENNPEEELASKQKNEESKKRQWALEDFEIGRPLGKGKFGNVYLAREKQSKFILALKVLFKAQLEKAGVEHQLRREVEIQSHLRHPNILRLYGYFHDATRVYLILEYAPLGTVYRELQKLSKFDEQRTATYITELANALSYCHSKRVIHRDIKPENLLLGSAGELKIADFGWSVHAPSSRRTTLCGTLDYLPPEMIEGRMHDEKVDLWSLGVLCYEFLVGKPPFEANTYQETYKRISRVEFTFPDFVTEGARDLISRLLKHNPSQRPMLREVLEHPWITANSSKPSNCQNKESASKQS

Aurora kinase A [2] = target: T1, Aurora kinase A; test: Inhibition of recombinant Aurora A (unknown origin) using myelin basic protein as substrate incubated for 30 mins in presence of DTT by [gamma-33P]-ATP based radioactive filter binding assay
Aurora kinase A [3] = target: T1, Aurora kinase A; test: Inhibition of recombinant Aurora A (unknown origin) using myelin basic protein as substrate incubated for 30 mins in presence of DTT by [gamma-33P]-ATP based radioactive filter binding assay

Row | SMILES | pIC50 (Aurora kinase A [1]) | pIC50 (Aurora kinase A [2]) | pIC50 (Aurora kinase A [3])
1 | CCCNC(=O)CCNC(=O)[C@H](O)C(C)(C)COC(=O)CC(=O)NC[C@@H]1O[C@H](n2cnc3c(N)ncnc32)[C@@H](O)[C@H]1O | 2.96 | – | –
2 | CCNC(=O)CCNC(=O)[C@@H](O)C(C)(C)COP(=O)(O)OP(=O)(O)OC[C@@H]1O[C@H](n2cnc3c(N)ncnc32)[C@@H](O)[C@H]1OP(=O)(O)O | 3.80 | – | –
3 | CC(C)(C)COC(=O)CCC(=O)OC[C@@H]1O[C@H](n2cnc3c(N)ncnc32)[C@@H](O)[C@H]1O | 3.37 | – | –
4 | Nc1ncnc2c1ncn2[C@H]1O[C@@H](CNC(=O)CC(=O)O)[C@H](O)[C@@H]1O | 3.04 | – | –
5 | CC(C)(COP(=O)(O)OP(=O)(O)OC[C@@H]1O[C@H](n2cnc3c(N)ncnc32)[C@@H](O)[C@H]1OP(=O)(O)O)[C@H](O)C(=O)NCCC(=O)NCCS | 5.30 | – | –
6 | CCCNC(=O)CCNC(=O)[C@H](O)C(C)(C)COC(=O)CC(=O)OC[C@@H]1O[C@H](n2cnc3c(N)ncnc32)[C@@H](O)[C@H]1O | 2.89 | – | –
7 | CC(C)(COP(=O)(O)OP(=O)(O)OC[C@@H]1O[C@H](n2cnc3c(N)ncnc32)[C@@H](O)[C@H]1O)[C@H](O)C(=O)NCCC(=O)NCCS | 4.77 | – | –

Continued, values first:

Row | pIC50 (Aurora kinase A [1]) | pIC50 (Aurora kinase A [2]) | pIC50 (Aurora kinase A [3]) | SMILES
8 | 4.08 | 3.93 | 3.93 | CC(C)(COC(=O)CCC(=O)OC[C@@H]1O[C@H](n2cnc3c(N)ncnc32)[C@@H](O)[C@H]1O)[C@@H](O)C(=O)NCCC(=O)NCCS
9 | 2.85 | – | – | CNC(=O)CCNC(=O)[C@H](O)C(C)(C)COC(=O)CCC(=O)OC[C@@H]1O[C@H](n2cnc3c(N)ncnc32)[C@@H](O)[C@H]1O
10 | 3.38 | – | – | Nc1ncnc2c1ncn2[C@H]1O[C@@H](COC(=O)CC(=O)O)[C@H](O)[C@@H]1O
11 | 2.89 | – | – | CNC(=O)[C@H](O)C(C)(C)COC(=O)CCC(=O)OC[C@@H]1O[C@H](n2cnc3c(N)ncnc32)[C@@H](O)[C@H]1O
12 | 3.30 | – | – | CCCNC(=O)CCNC(=O)[C@H](O)C(C)(C)COC(=O)CCC(=O)OC[C@@H]1O[C@H](n2cnc3c(N)ncnc32)[C@@H](O)[C@H]1O
13 | 3.27 | – | – | CCCNC(=O)CCNC(=O)[C@H](O)C(C)(C)COC(=O)CCCC(=O)OC[C@@H]1O[C@H](n2cnc3c(N)ncnc32)[C@@H](O)[C@H]1O
